Results reported in patent US6743443B1, “Tablets immediately disintegrating in the oral cavity” (Eisai Co., Ltd., priority 1998, dated 2004).

Experiment: physchem
Settings: 37 °C
Source text: However, there has been no report yet for an intraoral quickly disintegrating tablet containing a slightly soluble pharmaceutical agent having an improved solubility as such and for a method of manufacturing the tablet. One of the reasons therefor is that it is difficult for satisfying all of the requirements for improving the solubility of the slightly soluble pharmaceutical agent, for a quick disintegration in the mouth and for ensuring a good touch on the tongue upon disintegration. Many of the pharmaceutical ingredients acting as a cyclic GMP phosphodiesterase inhibitor are the compounds having a relatively low solubility and are within a category of the slightly soluble pharmaceutical agents.

`COc1ccc(CNc2nnc(N3CCC(O)CC3)c3ccc(C#N)cc23)cc1Cl.Cl` [formula (IX), 4-(3-chloro-4-methoxybenzyl)amino-6-cyano-1-(4-hydroxypiperidino)phthalazine hydrochloride] showed a solubility (pH 1.2, simulated gastric fluid) of 130 µg/mL and a solubility (pH 6.8, aqueous buffer) of 6.3 µg/mL.
